How the values were obtained:
recombinant D-AAO = target: T1, recombinant D-AAO (Glutamicibacter protophormiae, UniProt Q7X2D3); experiment: Substrate specificity of the recombinant D-AAO (photometric peroxidase/o-dianisidine test); assay type: biochemical, Arthrobacter protophormiae; conditions: for activity at 20000 µM: DL-amino acid, concentration increased to 20 mM; for activity at 20000 µM / activity at 10000 µM: read-out: Relative activity; for Substrate quality (in words): partial substrate spectrum, Table 2; for Stereoselectivity: conversion of L-amino acids by D-AAO: L-amino acids as substrate
T1 construct: The restriction sites NdeI and BamHI were attached to the dao gene by PCR; made in house; host or cells: E. coli BL21(DE3)
Description: (§1) To isolate D-AAO-forming microorganisms, soil samples were plated out on a nutrient medium in which coryneform bacteria can be concentrated: Na propionate 0.20 g; KNO3 0.01 g; KH2PO4 0.10 g; NaCl 0.25 g; MgSO4.7 H2O 0.10 g; CaCO3 0.02g; trace elements; vitamin solution; cycloheximide 0.05 g; if appropriate, agar 20.00 g; final pH 7.0. Microorganisms which grew on this medium were then transinoculated into a complex medium (DSM 65) with the following composition (per 1l): glucose 4.00 g; yeast extract 4.00 g; malt extract 10.00 g; agar 20 g; final pH 7.2. The strains were then multiplied in liquid medium (DSM 65), harvested by centrifugation, broken down, and the cell-free supernatant was obtained by centrifugation (=crude extract). This crude extract was then employed as an enzyme source for the photometric test for D-AAO activity. The test batch contained: 20 μl amino acid solution (100 mM); 80 μl TEA/o-dianisidine buffer; 10 μl peroxidase soln. (1,000 U/ml); 70 μl H2O; 20 μl crude extract. The measurement was carried out at 436 nm; 1 U corresponds to an amount of enzyme which converts 1 μmol of amino acid or 1 μmol of o-dianisidine per min (extinction coefficient ε for o-dianisidine=8.1 mM^−1 cm^−1).
A partial substrate spectrum was recorded for D-AAO (Table 2).
The stereoselectivity of the D-AAO was tested with the amino acids L-leucine, L-methionine and L-lysine. […] Thus, the D-AAO from Arthrobacter protophormiae can be described as highly stereoselective for D-amino acids.

partly purified D-AAO = target: T2, partly purified D-AAO (Glutamicibacter protophormiae, UniProt Q7X2D3); experiment: biochemical; conditions: read-out: Substrate excess inhibition K1
T2 sequence (Q7X2D3 1-326): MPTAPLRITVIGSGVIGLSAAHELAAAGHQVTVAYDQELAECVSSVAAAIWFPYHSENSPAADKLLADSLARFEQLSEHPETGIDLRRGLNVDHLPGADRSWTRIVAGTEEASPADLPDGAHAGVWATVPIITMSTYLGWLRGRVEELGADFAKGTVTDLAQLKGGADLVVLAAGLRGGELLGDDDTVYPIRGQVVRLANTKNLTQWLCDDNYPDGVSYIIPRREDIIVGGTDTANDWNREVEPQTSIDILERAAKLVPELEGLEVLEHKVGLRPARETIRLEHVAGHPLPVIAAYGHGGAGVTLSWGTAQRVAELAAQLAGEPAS
Description: as §1

D-AAO = target: T3, D-AAO (Glutamicibacter protophormiae, UniProt Q7X2D3); experiment: Influence of pH on D-AAO activity; assay type: biochemical, Arthrobacter protophormiae; conditions: three substrates (lysine, phenylalanine, methionine), 10 mM; three 80 mM buffers
T3 sequence (Q7X2D3 whole entry, looked up): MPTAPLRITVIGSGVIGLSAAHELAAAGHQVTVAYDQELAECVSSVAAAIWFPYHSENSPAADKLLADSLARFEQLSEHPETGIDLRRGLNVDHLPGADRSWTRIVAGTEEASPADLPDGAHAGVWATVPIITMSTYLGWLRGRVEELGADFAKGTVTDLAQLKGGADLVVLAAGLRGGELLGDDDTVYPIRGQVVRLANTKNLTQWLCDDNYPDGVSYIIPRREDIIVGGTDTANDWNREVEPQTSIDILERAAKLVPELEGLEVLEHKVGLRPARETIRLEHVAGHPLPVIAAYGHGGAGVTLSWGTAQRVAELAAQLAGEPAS
Description: The enzyme activity was measured with three different substrates in the following 80 mM buffers: ♦ citric acid-sodium phosphate, pH 5–7; ▪ TEA/HCl, pH 7–8.5; ▴ glycine/NaOH, pH 8.5–11. Each D-amino acid tested was employed in a final concentration of 10 mM.
The influence of pH on the activity of the D-AAO with respect to the substrates […] was investigated in three different buffers: citric acid-sodium phosphate […]; TEA/HCl pH 7.0–8.5; and glycine/NaOH pH 8.5–11). The optimum pH for all three substrates was in the weakly basic range, between pH 7.5–8.5 (FIG. 2).

[1] = D-AAO activity assay (specific activity of enzyme preparations); assay type: biochemical
Description: as §1
Recombinant D-AAO was purified to homogeneity using a two-step procedure (Table 1). E. coli BL21(DE3) carrying pApdao was disrupted by ultrasonification and cell debris was removed by centrifugation. The cleared supernatant was loaded onto a Q-Sepharose FF column (h 10 cm×Ø 2.6 cm) (Amersham Bioscience), which was equilibrated with 10 mM potassium phosphate buffer pH 7.0 and run at a flow rate of 2 ml/min. The column was washed with 10 mM potassium phosphate buffer pH 7.0 containing 0.2 M NaCl and the D-AAO was eluted by increasing the salt concentration up to 0.35 M. Active fractions were pooled and loaded onto a column, which was packed with ceramic MacroPrep hydroxyapatite, type I (h 8.3 cm×Ø 1.6 cm) (Bio-Rad). The column was equilibrated with 10 mM potassium phosphate buffer pH 6.8 containing 150 mM NaCl and the flow rate was 2 ml/min. The D-AAO was detected in the flow-through.

[2] = Isoelectric focussing of D-AAO; assay type: physicochemical; conditions: experimentally determined, polyacrylamide gels pH 4–6
Description: A molecular mass for a monomer of the D-AAO of 40 kDA was determined by means of SDS gel electrophoresis. […] The calculated molecular mass of the monomer was 34.6 kDa without and 35.4 kDa with FAD. These values indicate that the enzyme has a dimeric structure. Isoelectric focussing was performed using precast Serva polyacrylamide gels with a narrow pH range (pH 4–6). The experimentally determined pI was 4.4.

[3] = substrate: CSCC[C@@H](N)C(=O)O; experiment: purified protein, by the assay type; conditions: other: partly purified D-AAO

## NC(Cc1ccc(F)cc1)C(=O)O (racemic) [4-Fluoro-DL-phenylalanine]
Recombinant D-AAO
  activity at 20000 µM: 81%

## CC(C)(C)C(N)C(=O)O (racemic) [DL-tert-Leucine]
Recombinant D-AAO
  activity at 20000 µM: 0.12%

## CNC(CC(C)C)C(=O)O (racemic) [N-Methyl-DL-leucine]
Recombinant D-AAO
  activity at 20000 µM: 2.1%

## COCC(N)C(=O)O (racemic) [O-Methyl-DL-serine]
Recombinant D-AAO
  activity at 20000 µM: 0.33%

## C[C@@H](N)C(=O)O [D-Alanine]
Recombinant D-AAO
  activity at 10000 µM: 0.26%

## N=C(N)NCCC[C@@H](N)C(=O)O [D-Arginine]
Recombinant D-AAO
  Substrate quality (in words): effective in converting
  activity at 10000 µM: 80%

## N[C@H](Cc1c[nH]cn1)C(=O)O [D-Histidine]
Recombinant D-AAO
  activity at 10000 µM: 5.9%

## CC(C)C[C@@H](N)C(=O)O [D-Leucine]
Recombinant D-AAO
  activity at 10000 µM: 12%

## NCCCC[C@@H](N)C(=O)O [D-Lysine]
Recombinant D-AAO
  Substrate quality (in words): best substrates
  activity at 10000 µM: 99%

## CSCC[C@@H](N)C(=O)O [D-Methionine]
Recombinant D-AAO
  Substrate quality (in words): best substrates
  activity at 10000 µM: 100%

## N[C@H](Cc1ccccc1)C(=O)O [D-Phenylalanine]
Recombinant D-AAO
  Substrate quality (in words): effective in converting
  activity at 10000 µM: 54%
Partly purified D-AAO
  Ki: 55 mM

## O=C(O)[C@H]1CCCN1 [D-Proline]
Recombinant D-AAO
  activity at 10000 µM: 0.25%

## CC(C)[C@@H](N)C(=O)O [D-Valine]
Recombinant D-AAO
  activity at 10000 µM: 0.35%

## CC[C@H](C)[C@@H](N)C(=O)O [D-allo-Isoleucine]
Recombinant D-AAO
  activity at 10000 µM: 1%

## CC(C)C[C@H](N)C(=O)O [L-leucine]
Recombinant D-AAO
  Stereoselectivity: conversion of L-amino acids by D-AAO: None of these compounds were converted

## NCCCC[C@H](N)C(=O)O [L-lysine]
Recombinant D-AAO
  Stereoselectivity: conversion of L-amino acids by D-AAO: None of these compounds were converted

## CSCC[C@H](N)C(=O)O [L-methionine]
Recombinant D-AAO
  Stereoselectivity: conversion of L-amino acids by D-AAO: None of these compounds were converted

B1: partly purified D-AAO (Glutamicibacter protophormiae) (protein)
chain: MPTAPLRITVIGSGVIGLSAAHELAAAGHQVTVAYDQELAECVSSVAAAIWFPYHSENSPAADKLLADSLARFEQLSEHPETGIDLRRGLNVDHLPGADRSWTRIVAGTEEASPADLPDGAHAGVWATVPIITMSTYLGWLRGRVEELGADFAKGTVTDLAQLKGGADLVVLAAGLRGGELLGDDDTVYPIRGQVVRLANTKNLTQWLCDDNYPDGVSYIIPRREDIIVGGTDTANDWNREVEPQTSIDILERAAKLVPELEGLEVLEHKVGLRPARETIRLEHVAGHPLPVIAAYGHGGAGVTLSWGTAQRVAELAAQLAGEPAS
D-AAO
  Optimum pH: 7.5–8.5 pH
[1]; after Hydroxyapatite (second chromatography), 10 mM D-Met, pH 7.6, 30° C.
  Specific activity: 180 U/mg
[1]; after Q-Sepharose, 10 mM D-Met, pH 7.6, 30° C.
  Specific activity: 80 U/mg
[1]; after high cell density fermentation of E. coli BL21(DE3) carrying pE1D
  Specific activity: 15 U mg^−1
[1]; crude extract, E. coli BL21(DE3), 3 g cells, 10 mM D-Met, pH 7.6, 30° C.
  Specific activity: 30 U/mg
[1]; crude extracts of recombinant cells
  Specific activity in the crude extracts of recombinant cells: 15–30 U mg^−1
[1]; shaking flask, E. coli BL21(DE3) pE1D, 100 μM IPTG, 4 h at 30° C.
  Specific D-AAO activity in the crude extract: 30 U/mg
[2]
  pI: 4.4
[3]
  Km: 900 µM

— US7195900B2, “Cloning and expression of D-amino acid oxidase from arthrobacter protophormiae” (Degussa AG, priority 2002, dated 2007)
